Data published in PMC3962490, “The Yeast Ess1 Prolyl Isomerase Controls Swi6 and Whi5 Nuclear Localization” (G3: Genes|Genomes|Genetics, 2014).
Like-named read-outs stand apart in the source and are kept apart here. Non-standard residues stand in square brackets, D forms with d. Residues, ends and D or L forms follow the SMILES beside them. *: point of attachment. Biotin = O=C1N[C@H]2[C@H](CS[C@H]2CCCCC(=O)*)N1; pS = N[C@@H](COP(=O)(O)O)C(=O)O

Target: T1, Recombinant S. cerevisiae Ess1 protein (Saccharomyces cerevisiae, UniProt P22696)
T1 construct: made in house; host or cells: Escherichia coli
T1 sequence (P22696 1-170): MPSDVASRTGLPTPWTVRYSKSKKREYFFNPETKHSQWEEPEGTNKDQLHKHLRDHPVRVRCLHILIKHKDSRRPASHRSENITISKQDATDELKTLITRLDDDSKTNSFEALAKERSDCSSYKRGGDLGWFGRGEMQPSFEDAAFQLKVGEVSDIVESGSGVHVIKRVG
Experiment: Biolayer interferometry (BLI) kinetic assays of Ess1/peptide binding
Conditions: for Kd / Ess1 binding (in words) / kon: BLI; for Ess1 binding (in words): Ess1 3, 10, 30 μM, Figure 6, S1, S3; for kon: slope of kobs vs Ess1 concentration (Fig. S2), read-out: ka (association rate); for koff: read-out: kd (dissociation rate)
Method: Biolayer interferometry (BLI) was measured at 24° with an Octet RED system (FortéBio), essentially as described ([Shah and Duncan 2013]; [Shah et al. 2013]). Peptides were synthesized with N-terminal biotinylation (NEOBioLab). Phosphoserine residues were incorporated during synthesis and all peptides were purified to >95% purity by high-performance liquid chromatography (NEOBioLab). Each peptide included 4-6 N-terminal residues (typically [Gly-Gly-Ser]2) as a flexible linker to facilitate binding of Ess1 protein to the surface-immobilized peptide. BLI assays were carried out in 20 mM Tris-HCl pH 8.0, 1 mg/mL bovine serum albumin (Sigma-Aldrich; A6003-10G). Different peptides were immobilized on separate streptavidin-coated biosensors (FortéBio; cat. no. 18-5019). For each peptide sequence, sensors loaded with phosphorylated or unphosphorylated peptides were assayed in parallel, and the peptide concentrations (50−200 nM) and time of loading were controlled to achieve essentially the same level of peptide signal loaded, regardless of phosphorylation status (e.g., Figure S1). Recombinant S. cerevisiae Ess1 protein was purified from Escherichia coli as described ([Li et al. 2005]). Ess1 was incubated with peptide-loaded and control (no peptide) biosensors to measure kinetics of Ess1/peptide association, and sensors were moved to buffer alone to measure dissociation kinetics. To correct for low but significant nonspecific binding of Ess1 to sensors, data from a sensor without peptide within the same experiment were subtracted for each concentration of Ess1 used. For direct comparison of Ess1 binding to different peptides (Figure 6), signals were normalized for the levels of sensor-loaded peptide (0.2−0.5 nm) between sequential runs within the experiment. Data were analyzed using FortéBio Data Analysis software (Versions 6.4), and by linear and nonlinear regression in Prism (GraphPad, version 4).
To determine whether Ess1 interacts directly with Swi6 and Whi5, we conducted binding assays by using purified Ess1 protein and phospho-Ser-Pro or Ser-Pro peptides corresponding to the NLS motif of Swi6 and both NLS and NES motifs of Whi5. Binding was assayed using BLI ([Shah and Duncan 2013]). In brief, biotinylated peptides corresponding to the NLS or NES motifs were immobilized on streptavidin-coated sensors and binding of purified Ess1 protein was measured using BLI. Ess1 protein binding to immobilized peptide changes the optical interference at the sensor surface, measured as nm of spectral shift. Using this approach, we monitored the kinetics of binding and dissociation of Ess1. […] Binding was dependent on Ess1 concentration (3, 10, and 30 μM were used).
Figure 6 In vitro binding of Ess1 to Swi6 and Whi5 peptides. Kinetics for binding and dissociation of purified Ess1 protein with NLS and NES peptides were monitored using biolayer interferometry (BLI). Sensor-immobilized peptides: (A) carboxy-terminal domain (CTD) of RNA polymerase II (RNAPII), (B) Swi6-NLS, (C) Whi5-NLS, and (D) Whi5-NES. Data for phosphorylated peptides (P) are shown in black, unphosphorylated peptides (Un) in blue, and fitting curves are shown in red. Biotinylated peptides were loaded on individual streptavidin sensors, followed by a wash to remove unbound peptide. To measure Ess1 binding, sensors were transferred from buffer alone to buffer containing 3, 10, or 30 μM Ess1 protein (time zero) as indicated. After 300 sec, sensors were transferred to fresh buffer (without Ess1) to monitor Ess1 dissociation. Examples of raw data for these experiments, including the peptide-loading step and control sensors with no peptide are shown in Figure S1.
Table S4 Fitting Results for BLI Kinetic Assays
Peptide ka (M-1s-1) ±SD kd (s-1) ±SD %Rmax ±SD
Summary of results for fitting curves of BLI kinetic data (Fig. 6). The dissociation rate (kd) is an average (±standard deviation
(SD)) for fits at 3 concentrations of each peptide (3, 10, 30 µM). […]

[1] = estimated from binding isotherm F = E/(E + Kapp) with signal at 30 μM Ess1 relative to saturated signal of the cognate phosphorylated peptide, read-out: Kapp (estimated, unphosphorylated peptides)
[2] = 24°, 20 mM Tris-HCl pH 8.0, 1 mg/mL BSA, plateau binding responses vs Ess1 concentration (3, 10, 30 μM) fit to hyperbolic binding isotherm, read-out: KappEq (Equilibrium)

With CC[C@H](C)[C@H](NC(=O)CNC(=O)[C@@H]1CCCN1C(=O)[C@@H]1CCCN1C(=O)[C@H](CO)NC(=O)[C@@H]1CCCN1C(=O)[C@@H]1CCCN1C(=O)[C@H](CO)NC(=O)[C@@H]1CCCN1C(=O)[C@@H](NC(=O)CNC(=O)CNC(=O)[C@H](CO)NC(=O)CNC(=O)CNC(=O)CCCC[C@@H]1SC[C@@H]2NC(=O)N[C@@H]21)[C@@H](C)O)C(=O)O [Whi5-NLS] (Biotin-GGSGGTPSPPSPPGI-OH; N-terminus and C-terminus assumed) as the molecule, how does the Kd [1] read?
Its Kd is greater than 25 µM.

How did the “Ess1 binding (in words)” value turn out when C[C@@H](O)[C@H](NC(=O)[C@@H]1CCCN1C(=O)[C@H](CO)NC(=O)[C@H](Cc1ccc(O)cc1)NC(=O)[C@H](CO)NC(=O)CNC(=O)CNC(=O)[C@H](CO)NC(=O)CNC(=O)CNC(=O)CCCC[C@@H]1SC[C@@H]2NC(=O)N[C@@H]21)C(=O)N[C@@H](CO)C(=O)N1CCC[C@H]1C(=O)N[C@@H](CO)C(=O)N[C@@H](Cc1ccc(O)cc1)C(=O)N[C@@H](CO)C(=O)O [CTD, reference compound] (Biotin-GGSGGSYSPTSPSYS-OH; N-terminus and C-terminus assumed) was run?
The value was “very little binding”.

And the Kd [1]?
Its Kd is greater than 300 µM.

For CC(C)C[C@H](NC(=O)[C@H](CCCNC(=N)N)NC(=O)[C@@H]1CCCN1C(=O)[C@H](COP(=O)(O)O)NC(=O)[C@@H]1CCCN1C(=O)[C@H](COP(=O)(O)O)NC(=O)[C@H](CC(C)C)NC(=O)[C@H](Cc1ccccc1)NC(=O)CNC(=O)CNC(=O)[C@H](CO)NC(=O)CNC(=O)CN)C(=O)N[C@@H](CCCNC(=N)N)C(=O)N[C@@H](COP(=O)(O)O)C(=O)N1CCC[C@H]1C(=O)N1CCC[C@H]1C(=O)N[C@H](C(=O)O)[C@@H](C)O [Whi5-NES-P] (H-GGSGGFL[pS]P[pS]PRLR[pS]PPT-OH), which Kd [2] is on record?
The Kd was 1.13 ± 0.18 µM.

What about the kon of the same molecule?
Its kon is 17500 M⁻¹ s⁻¹.

What about the koff of the same molecule?
The koff was 0.0503 s⁻¹.

What does the source list for CC(C)C[C@H](NC(=O)[C@H](CCC(=O)O)NC(=O)[C@H](CCCNC(=N)N)NC(=O)[C@H](CO)NC(=O)CNC(=O)CNC(=O)[C@H](CO)NC(=O)CNC(=O)CN)C(=O)NCC(=O)N[C@@H](COP(=O)(O)O)C(=O)N1CCC[C@H]1C(=O)N[C@@H](CC(C)C)C(=O)N[C@@H](CCCCN)C(=O)N[C@@H](CCCCN)C(=O)O [Swi6-NLS-P] (H-GGSGGSRELG[pS]PLKK-OH)?
Kd [2]: 10.1 ± 5.1 µM; kon: 25100 M⁻¹ s⁻¹; koff: 0.254 s⁻¹

For CC(C)C[C@H](NC(=O)[C@H](CCCNC(=N)N)NC(=O)[C@@H]1CCCN1C(=O)[C@H](CO)NC(=O)[C@@H]1CCCN1C(=O)[C@H](CO)NC(=O)[C@H](CC(C)C)NC(=O)[C@H](Cc1ccccc1)NC(=O)CNC(=O)CNC(=O)[C@H](CO)NC(=O)CNC(=O)CNC(=O)CCCC[C@@H]1SC[C@@H]2NC(=O)N[C@@H]21)C(=O)N[C@@H](CCCNC(=N)N)C(=O)N[C@@H](CO)C(=O)N1CCC[C@H]1C(=O)N1CCC[C@H]1C(=O)N[C@H](C(=O)O)[C@@H](C)O [Whi5-NES] (Biotin-GGSGGFLSPSPRLRSPPT-OH; N-terminus and C-terminus assumed), which Kd [1] is on record?
Its Kd is greater than 1500 µM.

How did the Kd [1] turn out when CC(C)C[C@H](NC(=O)[C@H](CCC(=O)O)NC(=O)[C@H](CCCNC(=N)N)NC(=O)[C@H](CO)NC(=O)CNC(=O)CNC(=O)[C@H](CO)NC(=O)CNC(=O)CNC(=O)CCCC[C@@H]1SC[C@@H]2NC(=O)N[C@@H]21)C(=O)NCC(=O)N[C@@H](CO)C(=O)N1CCC[C@H]1C(=O)N[C@@H](CC(C)C)C(=O)N[C@@H](CCCCN)C(=O)N[C@@H](CCCCN)C(=O)O [Swi6-NLS] (Biotin-GGSGGSRELGSPLKK-OH; N-terminus and C-terminus assumed) was run?
The Kd was greater than 100 µM.

With C[C@@H](O)[C@H](NC(=O)[C@@H]1CCCN1C(=O)[C@H](CO)NC(=O)[C@H](Cc1ccc(O)cc1)NC(=O)[C@H](CO)NC(=O)CNC(=O)CNC(=O)[C@H](CO)NC(=O)CNC(=O)CN)C(=O)N[C@@H](COP(=O)(O)O)C(=O)N1CCC[C@H]1C(=O)N[C@@H](CO)C(=O)N[C@@H](Cc1ccc(O)cc1)C(=O)N[C@@H](CO)C(=O)O [CTD-P, reference compound] (H-GGSGGSYSPT[pS]PSYS-OH) as the molecule, how does the Kd [2] read?
The Kd was 1.65 ± 0.06 µM.

What about the kon of the same molecule?
The kon was 27100 M⁻¹ s⁻¹.

What about the koff of the same molecule?
Its koff is 0.0923 s⁻¹.

Which Kd [2] does the source give for CC[C@H](C)[C@H](NC(=O)CNC(=O)[C@@H]1CCCN1C(=O)[C@@H]1CCCN1C(=O)[C@H](COP(=O)(O)O)NC(=O)[C@@H]1CCCN1C(=O)[C@@H]1CCCN1C(=O)[C@H](COP(=O)(O)O)NC(=O)[C@@H]1CCCN1C(=O)[C@@H](NC(=O)CNC(=O)CNC(=O)[C@H](CO)NC(=O)CNC(=O)CN)[C@@H](C)O)C(=O)O [Whi5-NLS-P] (H-GGSGGTP[pS]PP[pS]PPGI-OH) here?
Its Kd is 0.48 ± 0.46 µM.

What about the kon of the same molecule?
Its kon is 22800 M⁻¹ s⁻¹.

And the koff?
The koff was 0.0722 s⁻¹.

With “H3 aa1-21 unphosphorylated: "nonsubstrate" peptide (H3 aa1-21) in the unphosphorylated form [reference compound]” as the molecule, how does the “Ess1 binding (in words)” value read?
Its value is “did not bind”.

How did the “Ess1 binding (in words)” value turn out when “H3 aa1-21 (Ser10-P): "nonsubstrate" peptide (H3 aa1-21) in the phosphorylated form (Ser10-P) [reference compound]” was run?
The value was “did not bind”.
